Experimental data: patent publication US9220767B2 (priority 2008, dated 2015)

Columns and labels:
[1] = tested on: IgG1, IgG2a and IgG2b; assay: Detection of IgG1, IgG2a and IgG2b in mouse sera by ELISA after intramuscular Agrippal and adjuvants; type: in vivo, mice; details: for level of IgG1 in sera / level of IgG2a in sera / level of IgG2b in sera: 1, 4 or 8.9 μg Agrippal alone or + 1 μg adjuvant, ELISA; for level of IgG1 when the dose of Agrippal combined to the adjuvant was increased / level of IgG2a when the dose of Agrippal combined to the adjuvant was increased / level of IgG2b when the dose of Agrippal combined to the adjuvant was increased: Agrippal 1 to 8.9 μg + 1 μg adjuvant
Method: Mice were injected at day 0 and day 21 with: • PBS, • 1 μg Agrippal® alone, • 1 μg Agrippal®+1 μg PBS-57 in pegylated form or liposome formulation (PBS-57/S or PBS-57/L) or PBS-14 liposome formulation (PBS-14/L), • 4 μg Agrippal® alone, • 4 μg Agrippal®+1 μg PBS-57/S or PBS-57/L or PBS-14/L, • 8.9 μg Agrippal® alone, or • 8.9 μg Agrippal®+1 μg PBS-57/S or PBS-57/L or PBS-14/L.
Sera were collected at day 42 and the IgG1, IgG2a and IgG2b content of the sera was analysed by ELISA.
Mice were injected at day 0 with: • PBS, • 1 μg Agrippal® alone, • 1 μg Agrippal®+1 μg PBS-57 in pegylated form or liposome formulation (PBS-57/S or PBS-57/L) • 4 μg Agrippal® alone, • 4 μg Agrippal®+1 μg PBS-57/S or PBS-57/L, • 8.9 μg Agrippal® alone, or • 8.9 μg Agrippal®+1 μg PBS-57/S or PBS-57/L.
Sera were collected at day 21 and the IgG1 and IgG2b content of the sera was analysed by ELISA.

[2] = tested on: three prototypical strains (A/Brisbane/10/2007, A/Brisbane/59/2007, and B/Florida/4/2006); assay: Indirect hemagglutination assay (IHA) of immunised mice sera, statements not split by strain; type: in vivo; details: for IHA titers induced by Fluarix vaccination: mice immunised twice with Fluarix + adjuvant, vs Fluarix alone (Example 3)
Method: (§1) Mice were injected by intramuscular route at day 0 and day 21 with: • NaCl, • 1 μg Fluarix® alone, • 1 μg Fluarix®+1 μg PBS-57/S, or • 1 μg Fluarix®+1 μg PBS-57/L.
(§2) Sera were collected at day 42 and reactivity with the three prototypical strains (A/Brisbane/10/2007, A/Brisbane/59/2007, and B/Florida/4/2006) of Fluarix® vaccine was assayed by measuring IHA titers for each of these strains (see FIG. 7).
(§3) Mice were injected by intramuscular route at day 0 and day 21 with: • nothing (naïve mice), • PBS, • 4 μg Agrippal® alone, • 8.9 μg Agrippal® alone, • 4 μg Agrippal®+1 μg PBS-57 in liposome formulation (PBS-57/L) or PBS-14 liposome formulation (PBS-14/L), or • 8.9 μg Agrippal®+1 μg PBS-57 in PEGylated form (PBS-57/S) or PBS-57/L or PBS-14/L.
(§4) Sera were collected at day 42 and reactivity with the three prototypical strains (H3 A/Brisbane/10/2007, H1 A/Brisbane/59/2007, and B/Florida/4/2006) of Agrippal® vaccine was assayed by measuring IHA titers for each of these strains (see FIG. 8).
Mice were injected by intramuscular route at day 0 with: • NaCl, • PBS-57/D alone, • PBS-57/L alone, • PBS-57/S alone, • 4 μg Agrippal® alone, • 8.9 μg Agrippal® alone, • 4 μg Agrippal®+1 μg PBS-57 in liposome formulation (PBS-57/L) or in pegylated form (PBS-57/S) or in DMSO (PBS-57/D), or • 8.9 μg Agrippal®+1 μg PBS-57/L or PBS-57/S or PBS-57/D.
Sera were collected at day 21 and reactivity with the three prototypical strains (H3 A/Brisbane/10/2007, H1 A/Brisbane/59/2007, and B/Florida/4/2006) of Agrippal® vaccine was assayed by measuring IHA titers for each of these strains (see FIG. 9).
Mice were injected by intramuscular route at day 0 with: • PBS, • 1 μg PBS-57 in DMSO (PBS-57/D) alone • 1 μg PBS-57 in PEGylated form (PBS-57/S) alone, • 1 μg PBS-57 in liposome formulation (PBS-57/L) alone, • 4 μg Agrippal® alone, • 8.9 μg Agrippal® alone, • 4 μg Agrippal®+1 μg PBS-57/D, PBS-57/S or PBS-57/L, or • 8.9 μg Agrippal®+1 μg PBS-57/D, PBS-57/S or PBS-57/L.
(§5) Agrippal® vaccine comprises a mixture of A/Brisbane/10/2007-like, A/Brisbane/59/2007-like, and B/Florida/4/2006-like strains.
Sera were collected at day 21 and reactivity with the three prototypical strains (H3 A/Brisbane/10/2007, H1 A/Brisbane/59/2007, and B/Florida/4/2006) of Agrippal® vaccine was assayed by measuring IHA titers for each of these strains (see FIG. 20).

[3] = tested on: H3 A/Brisbane/10/2007; assay: Indirect hemagglutination assay (IHA) of immunised mice sera, strain A/Brisbane/10/2007; type: in vivo; details: 1 μg Fluarix + 1 μg adjuvant i.m. day 0 and 21; sera day 42; vs Fluarix alone
Method: as §1
(§6) Fluarix® vaccine comprises a mixture of A/Brisbane/10/2007-like, A/Brisbane/59/2007-like, and B/Florida/4/2006-like strains.
as §2, §3, §5
Sera were collected at day 42 and reactivity with the three prototypical strains (H3 A/Brisbane/10/2007, H1 A/Brisbane/59/2007, and B/Florida/4/2006) of Agrippal® vaccine was assayed by measuring IHA titers for each of these strains (see FIG. 8). […]

[4] = tested on: H1 A/Brisbane/59/2007; assay: Indirect hemagglutination assay (IHA) of immunised mice sera, strain A/Brisbane/59/2007; type: in vivo; details: 1 μg Fluarix + 1 μg adjuvant i.m. day 0 and 21; sera day 42; vs Fluarix alone
Method: as §1, §6, §2, §3, §5, §4

[5] = tested on: B/Florida/4/2006; assay: Indirect hemagglutination assay (IHA) of immunised mice sera, strain B/Florida/4/2006; type: in vivo; details: 1 μg Fluarix + 1 μg adjuvant i.m. day 0 and 21; sera day 42; vs Fluarix alone
Method: as §1, §6, §2, §3, §5, §4

[6] = tested on: iNKT (Vβ11/Vα24+ cells) from adults PBMC; assay: In vitro iNKT activation, adult PBMC; type: cell-based; details: 7 days culture with IL-2, 10 or 100 ng/ml, compared to 100 ng α-GalCer
Method: (§7) Adults PBMC and cord blood mononuclear cells (CBMC) were either non stimulated, or cultured in vitro with IL-2 alone or IL-2 combined with 100 ng α-GalCer or PBS-57/D or PBS-57/L (at 10 ng/ml or 100 ng/ml).
(§8) After 7 days of culture, activation of iNKT was determined by assessing the percentage of Vβ11/Vα24^+ cells amplified from PBMC or CBMC (FIGS. 13 and 14).

[7] = tested on: iNKT (Vβ11/Vα24+ cells) from cord blood mononuclear cells (CBMC); assay: In vitro iNKT activation, cord blood mononuclear cells; type: cell-based; details: 7 days culture with IL-2, 10 or 100 ng/ml, compared to 100 ng α-GalCer
Method: as §7, §8

[8] = mice injected day 0 and day 21, sera day 42
[9] = two injections (day 0, 21), sera day 42
[10] = mice immunised twice (day 0, 21) with Agrippal + 1 μg adjuvant, sera day 42 (Example 4)
[11] = single injection day 0 of Agrippal + 1 μg adjuvant, sera day 21 (Example 5)
[12] = single injection day 0, sera day 21

## CCCCCCCCCCCCCCCCCCCCCCCCCC(=O)N[C@@H](COC1OC(CNC(C)=O)C(O)C(O)C1O)[C@H](O)[C@H](O)CCCCCCCCCCCCCC (stereo partly shown) [PBS-14]
[1]; [8]
  level of IgG1 in sera: increases
  level of IgG2a in sera: increases
  level of IgG2b in sera: increases
[1]; [9]
  level of IgG1 when the dose of Agrippal combined to the adjuvant was increased: not significantly further increased
  level of IgG2a when the dose of Agrippal combined to the adjuvant was increased: not significantly further increased
  level of IgG2b when the dose of Agrippal combined to the adjuvant was increased: not significantly further increased
[2]; [10]
  IHA titers as compared with the Agrippal vaccine alone: increased IHA titers
[2]
  IHA titers induced by Fluarix vaccination: same results
[2]; [11]
  IHA titers as compared with the Agrippal vaccine alone: increased IHA titers

## CCCCCCCC/C=C\CCCCCCCCCCCCCC(=O)N[C@@H](COC1OC(CNC(C)=O)C(O)C(O)C1O)[C@H](O)[C@H](O)CCCCCCCCCCCCCC (stereo partly shown) [PBS-57]
[1]; [8]
  level of IgG1 in sera: increases
  level of IgG2a in sera: increases
  level of IgG2b in sera: increases
[1]; [12]
  level of IgG1 in sera: increases
  level of IgG2b in sera: increases
  level of IgG1 when the dose of Agrippal combined to the adjuvant was increased: not significantly further increased
  level of IgG2b when the dose of Agrippal combined to the adjuvant was increased: not significantly further increased
[1]; [9]
  level of IgG1 when the dose of Agrippal combined to the adjuvant was increased: not significantly further increased
  level of IgG2a when the dose of Agrippal combined to the adjuvant was increased: not significantly further increased
  level of IgG2b when the dose of Agrippal combined to the adjuvant was increased: not significantly further increased
[3]
  IHA titers induced by Fluarix vaccination against A/Brisbane/10/2007: significantly enhanced
[4]
  IHA titers induced by Fluarix vaccination against A/Brisbane/59/2007: enhanced but to a less significant level
[5]
  IHA titers induced by Fluarix vaccination against B/Florida/4/2006: significantly enhanced
[2]; [10]
  IHA titers as compared with the Agrippal vaccine alone: increased IHA titers
[2]; single injection day 0 of 4 or 8.9 μg Agrippal + 1 μg adjuvant, sera day 21 (Example 12)
  IHA titers as compared with the Agrippal vaccine alone: increased IHA titers
[2]; [11]
  IHA titers as compared with the Agrippal vaccine alone: increased IHA titers
[6]
  activation of iNKT (percentage of Vβ11/Vα24+ cells amplified): stronger activation of iNKT compared to α-GalCer
[7]
  activation of iNKT (percentage of Vβ11/Vα24+ cells amplified): stronger activation of iNKT compared to α-GalCer

## CCCCCCCCCCCCCCCCCCCCCCCC(=O)N[C@@H](COC1OC(CNC(C)=O)C(O)C(O)C1O)[C@H](O)[C@H](O)CCCCCCCCCCCCCC (stereo partly shown) [PBS-96]
[2]
  IHA titers induced by Fluarix vaccination: same results
